Experimental data taken from article PMC6934184, “Selective DNA-PKcs inhibition extends the therapeutic index of localized radiotherapy and chemotherapy” (The Journal of Clinical Investigation, 2019).

Target: T1, EGFR (ErbB1) (Homo sapiens, UniProt P00533)
T1 construct: purchased Thermo Fisher Scientific (Life Technologies) SelectScreen
Assay: SelectScreen Z'LYTE
Format: biochemical
How it was run: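 NU5455 was profiled across the SelectScreen Broad panel of kinase activity and binding assays. Z'LYTE reactions such as CSF1R ran at apparent Km ATP, while the Adapta CAMK1 assay used ATP listed as 10. Values are given as percent.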

T1 sequence (P00533 25-1210): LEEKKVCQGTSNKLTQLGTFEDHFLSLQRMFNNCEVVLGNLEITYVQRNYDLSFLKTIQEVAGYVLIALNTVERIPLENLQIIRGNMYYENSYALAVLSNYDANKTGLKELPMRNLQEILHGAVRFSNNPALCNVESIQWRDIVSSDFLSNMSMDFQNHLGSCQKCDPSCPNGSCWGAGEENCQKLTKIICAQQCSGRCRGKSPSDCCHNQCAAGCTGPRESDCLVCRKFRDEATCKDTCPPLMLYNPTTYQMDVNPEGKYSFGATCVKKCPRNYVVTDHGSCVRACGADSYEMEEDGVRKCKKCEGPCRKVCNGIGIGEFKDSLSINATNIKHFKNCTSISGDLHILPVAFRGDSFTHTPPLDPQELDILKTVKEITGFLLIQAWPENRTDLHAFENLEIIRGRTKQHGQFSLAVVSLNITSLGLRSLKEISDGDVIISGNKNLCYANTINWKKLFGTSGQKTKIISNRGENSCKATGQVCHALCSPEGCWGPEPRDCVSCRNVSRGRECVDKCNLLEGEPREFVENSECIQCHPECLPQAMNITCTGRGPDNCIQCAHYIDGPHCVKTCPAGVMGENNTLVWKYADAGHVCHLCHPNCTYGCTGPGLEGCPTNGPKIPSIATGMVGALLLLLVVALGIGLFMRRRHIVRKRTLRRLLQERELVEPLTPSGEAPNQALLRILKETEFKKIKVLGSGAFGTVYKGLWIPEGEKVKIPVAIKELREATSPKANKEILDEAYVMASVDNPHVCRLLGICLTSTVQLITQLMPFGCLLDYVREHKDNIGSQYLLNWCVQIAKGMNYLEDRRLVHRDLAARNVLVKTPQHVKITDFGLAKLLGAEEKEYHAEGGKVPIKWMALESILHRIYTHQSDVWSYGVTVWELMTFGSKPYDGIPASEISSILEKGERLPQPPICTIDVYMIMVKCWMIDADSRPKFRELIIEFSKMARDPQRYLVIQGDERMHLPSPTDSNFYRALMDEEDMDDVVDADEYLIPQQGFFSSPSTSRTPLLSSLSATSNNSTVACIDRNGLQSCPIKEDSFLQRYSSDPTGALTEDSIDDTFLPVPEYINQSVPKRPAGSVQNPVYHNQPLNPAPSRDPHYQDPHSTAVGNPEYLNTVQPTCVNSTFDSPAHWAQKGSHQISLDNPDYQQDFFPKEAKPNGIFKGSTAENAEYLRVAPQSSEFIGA

CN(C(=O)CN1CCOCC1)c1ccc2sc3c(-c4cccc5c(=O)cc(N6CC7CCC(C6)O7)oc45)cccc3c2c1 [NU5455]
inhibition at 1 µM: 6%
